In patent US4994270A, “A54145 antibiotics and process for their production” (Eli Lilly and Company, priority 1988, dated 1991):
Values after ≈ are worked out from the molar mass of the structure shown. Values joined by “and” are separate entries in the source; they are usually repeats but may differ in a detail not shown here. Equal entries are not always repeated. Starred links: 1 amine or outer side, 2 acyl side, 3 side chain; linkers in the order of their positions; H or OH if unused. Positions of bridges follow the written chain, without caps; N, C: chain ends. Non-standard residues stand in square brackets, D forms with d. Residues, ends and D or L forms follow the SMILES beside them. ξ: configuration not given here. *: point of attachment. ξAsp(3ξ-OMe) = COC(C(=O)O)C(N)C(=O)O; X1 = CC(CC(=O)O)C(N[*:1])C(=O)[*:2]; ξAsn(3ξ-OH) = NC(=O)C(O)C(N)C(=O)O; Decanoyl = CCCCCCCCCC(=O)*; X2 = CC(C)CCCCCCC(=O)*; Sar = CNCC(=O)O

Legend:
[1] = tested on: Staphylococcus aureus S13E; assay: MIC, conventional agar-dilution assay; type: cell-based
Procedure: (§1) The A54145 antibiotics inhibit the growth of pathogenic bacteria. […] The MIC's in Table IX were determined by conventional agar-dilution assays.

[2] = tested on: Staphylococcus aureus V41; assay: MIC, conventional agar-dilution assay; type: cell-based
Procedure: as §1

[3] = tested on: Staphylococcus aureus X1.1; assay: MIC, conventional agar-dilution assay; type: cell-based
Procedure: as §1

[4] = tested on: Staphylococcus aureus X400; assay: MIC, conventional agar-dilution assay; type: cell-based
Procedure: as §1

[5] = tested on: Staphylococcus epidermidis 222; assay: MIC, conventional agar-dilution assay; type: cell-based
Procedure: as §1

[6] = tested on: Staphylococcus epidermidis EPI1; assay: MIC, conventional agar-dilution assay; type: cell-based
Procedure: as §1

[7] = tested on: Streptococcus pneumoniae Park1; assay: MIC, conventional agar-dilution assay; type: cell-based
Procedure: as §1

[8] = tested on: Streptococcus pyogenes C203; assay: MIC, conventional agar-dilution assay; type: cell-based
Procedure: as §1

[9] = tested on: Streptococcus sp. group 2041; assay: MIC, conventional agar-dilution assay; type: cell-based
Procedure: as §1

[10] = tested on: Streptococcus sp. group D X66; assay: MIC, conventional agar-dilution assay; type: cell-based
Procedure: as §1

[11] = tested on: Staphylococcus aureus 209P; assay: Stimulation of in vitro activity by calcium ions; type: cell-based; set-up: dose or concentration left out as unconfirmed
Procedure: (§2) The in vitro activity of the A54145 antibiotics is stimulated by the presence of calcium ions. For example, the in vitro activity of A54145A against Staphylococcus aureus 209P and Streptococcus faecalis ATCC 29212 was stimulated about 100 times by the presence of Ca^++ ([…]).

[12] = tested on: Streptococcus faecalis ATCC 29212; assay: Stimulation of in vitro activity by calcium ions; type: cell-based; set-up: dose or concentration left out as unconfirmed
Procedure: as §2

Staphylococcus aureus = assay: ED50 in experimentally infected mice; type: in vivo; details: mice infected with Staphylococcus aureus; subcutaneous; doses given 1 and 4 hours postinfection
Procedure: (§3) The A54145 antibiotics have shown in vivo antimicrobial activity against experimentally-induced infections in laboratory animals. When two doses of test compound were administered to mice experimentally infected with Streptococcus pyogenes or Staphylococcus aureus, the activity observed was measured as an ED50 value [effective dose in mg/kg to protect 50% of the test animals: see Warren Wick, et al. J. Bacteriol. 81 233-235 (1961)].

Streptococcus pyogenes = assay: ED50 in experimentally infected mice; type: in vivo; details: mice infected with Streptococcus pyogenes, subcutaneous; for ED50 Value: doses given 1 and 4 hours postinfection
Procedure: as §3

[13] = Chick growth performance test (weight gain, feed efficiency); type: in vivo, chicks; details: for Weight Gain Amt.: chicks 7-14 days of age; for Feed/Gain % Impr. / Weight Gain % Impr.: relative to the control mean
Source text: In the tests, the compounds were given to chicks at the concentrations indicated in the feed. The test period was the 7-day period from 7-14 days of age of the birds. Growth performance (weight gain, feed consumption and feed efficiency) was compared to that of contemporary controls.

[14] = Growth performance of starter pigs; type: in vivo
Source text: In this test, a total of 145 barrows and gilts, averaging 22 pounds starting weight, were used to determine the effect of various dosages of A54145 on the growth performance of starter pigs. The pigs were fed an 18% crude protein corn-soy diet and were housed in a completely enclosed building with wire mesh floors elevated over a flush floor. The effect of the treatments on performance was studied for a 28-day trial period.

| Compound | MIC [1] | MIC [2] | MIC [3] | MIC [4] | MIC [5] | MIC [6] | MIC [7] | MIC [8] | MIC [9] | MIC [10] | ED50 Value (Streptococcus pyogenes) | weight gains in chickens (in words) [13] | further results |
| --- | --- | --- | --- | --- | --- | --- | --- | --- | --- | --- | --- | --- | --- |
| CCC(C)C1NC(=O)C(CCC(=O)O)NC(=O)C(CC(N)=O)NC(=O)CNC(=O)C(C(OC)C(=O)O)NC(=O)C(CCCCN)NC(=O)C(CC(=O)O)NC(=O)C(C)NC(=O)CN(C)C(=O)C(NC(=O)C(NC(=O)C(CCC(=O)O)NC(=O)C(Cc2c[nH]c3ccccc23)NC(=O)CCCCCCC(C)C)C(O)C(N)=O)C(C)OC1=O (stereo not drawn) [Component A54145A] (X2-WE[ξAsn(3ξ-OH)]T[Sar]ADK[ξAsp(3ξ-OMe)]GNEI; ester 4-C; configuration not given here) | 8 µg/mL (≈ 4.86 µM) | 8 µg/mL (≈ 4.86 µM) | 8 µg/mL (≈ 4.86 µM) | 8 µg/mL (≈ 4.86 µM) | 4 µg/mL (≈ 2.43 µM) | 4 µg/mL (≈ 2.43 µM) | 8 µg/mL (≈ 4.86 µM) | 2 µg/mL (≈ 1.22 µM) | 64 µg/mL (≈ 38.9 µM) | 16 µg/mL (≈ 9.73 µM) | 2.4 mg/kg × 2 | increased weight gains | stimulation of in vitro activity by Ca++ [11]: about 100 times; stimulation of in vitro activity by Ca++ [12]: about 100 times; ED50 Value (Staphylococcus aureus): 3.3 mg/kg × 2; ED50 Value, individual values of two tests (Streptococcus pyogenes; individual tests behind the average): 1.6 mg/kg × 2 and 3.1 mg/kg × 2; Feed/Gain Ratio ([13]; Table XII, 20 g/ton): 1.546; Weight Gain Amt. ([13]; Table XII, 20 g/ton in feed): 168 g; Feed/Gain % Impr. ([13]; Table XII, 20 g/ton): 11.0%; Weight Gain % Impr. ([13]; Table XII, 20 g/ton): 26.3%; feed/gain ratio in pigs (in words) [14]: improved the feed/gain ratio |
| CCCCCCCCCC(=O)NC(Cc1c[nH]c2ccccc12)C(=O)NC(CCC(=O)O)C(=O)NC(C(=O)NC1C(=O)N(C)CC(=O)NC(C)C(=O)NC(CC(=O)O)C(=O)NC(CCCCN)C(=O)NC(C(OC)C(=O)O)C(=O)NCC(=O)NC(CC(N)=O)C(=O)NC(C(C)CC(=O)O)C(=O)NC(C(C)CC)C(=O)OC1C)C(O)C(N)=O (stereo not drawn) [Component A54145B] (Decanoyl-WE[ξAsn(3ξ-OH)]T[Sar]ADK[ξAsp(3ξ-OMe)]GN[X1]I; ester 4-C; configuration not given here) | 2 µg/mL (≈ 1.21 µM) | 2 µg/mL (≈ 1.21 µM) | 2 µg/mL (≈ 1.21 µM) | 2 µg/mL (≈ 1.21 µM) | 2 µg/mL (≈ 1.21 µM) | 2 µg/mL (≈ 1.21 µM) | 2 µg/mL (≈ 1.21 µM) | 0.5 µg/mL (≈ 0.301 µM) | 8 µg/mL (≈ 4.82 µM) | 4 µg/mL (≈ 2.41 µM) | 0.94 mg/kg × 2 | increased weight gains | Feed/Gain Ratio ([13]; Table XIII, 5 g/ton): 1.887; Weight Gain Amt. ([13]; Table XIII, 5 g/ton in feed): 341 g; Feed/Gain % Impr. ([13]; Table XIII, 5 g/ton): 6.3%; Weight Gain % Impr. ([13]; Table XIII, 5 g/ton): 8.3%; Feed/Gain Ratio ([13]; Table XIII, 10 g/ton): 1.730; Weight Gain Amt. ([13]; Table XIII, 10 g/ton in feed): 392 g; Feed/Gain % Impr. ([13]; Table XIII, 10 g/ton): 14.1%; Weight Gain % Impr. ([13]; Table XIII, 10 g/ton): 24.4%; Feed/Gain Ratio ([13]; Table XIII, 20 g/ton): 1.785; Weight Gain Amt. ([13]; Table XIII, 20 g/ton in feed): 402 g; Feed/Gain % Impr. ([13]; Table XIII, 20 g/ton): 11.3%; Weight Gain % Impr. ([13]; Table XIII, 20 g/ton): 27.6% |
